Laboratory results from patent US12251411B2, “Methods of treating endometrial cancer using hemp extract” (Ecofibre USA Inc., priority 2021, dated 2025).
Values after ≈ are worked out from the molar mass of the structure shown. Like-named read-outs stand apart in the source and are kept apart here.

What was measured:
endometrial cancer = experiment: Case of a patient with stage IV chemoresistant metastatic endometrial cancer (PET/CT follow up)
Description: Soon after the experiments detailed above a person came to us. They were diagnosed with endometrial cancer after presenting with significant pain and discomfort. They had already undergone a total hysterectomy and bilateral salpingo-oophorectomy followed by five rounds of chemotherapy. Each of the first five rounds of chemotherapy was a combined chemotherapy with Paclitaxil/Carboplatin.
See, Tables 3 and 4, below. […] As such, […] began standard protocol GemCap treatment in combination with a regime of 30 mg of BSHE twice daily via oral mucosal delivery and 75 mg of FSHE once daily via intravaginal delivery.

[1] = tested on: patient derived endometrial cancer organoids; experiment: Patient-derived endometrial cancer organoid viability: chemotherapeutic agent alone or with IC50 dose of cannabis extract
Description: To perform these experiments, we used cells from patient 4 (see, e.g., FIGS. 7A and 7C) to test grade 2 endometrial cancer and cells from patient 12 (see, e.g., FIGS. 7B-7D) to test grade 3 endometrial cancer. […] Methods concerning producing organoids from human tissue samples are provided in the Methods section at the end of this document.
(§1) Individual patient cell organoids were cultured separately in different plates.
(§2) The same IC50 dose was given with each incremental dose of chemotherapeutic agent.

[2] = tested on: patient derived organoids; format: cell-based, human; conditions: % of cells that died compared to control; organoids of the chemoresistant patient
Description: In addition to the agents listed above, several other drugs were tested to see if they influenced organoid growth. In this case, results are shown as the % of cells that died compared to control. […] This is consistent with the patient's actual lack of response to treatment with paclitaxel.

[3] = tested on: organoids from the patient's endometrial cancer; experiment: Response of organoids crafted from the patient's endometrial cancer to alternative chemotherapies and BSHE; format: cell-based, human; conditions: chemoresistant stage IV endometrial cancer patient
Description: See, Tables 3 and 4, below.

[4] = tested on: patient derived endometrial cancer tumors; experiment: Patient-derived xenograft mice: tumor volume with paclitaxel alone or combined with cannabis extract; format: in vivo
Description: (§3) Human patient cells from endometrial cancer were injected subcutaneously into female NOD/SCID gamma mice after resuspending in 100 μL solution. […] Tumor size was measured before treatment, followed by twice a week measurements. All treatment group mice were kept alive for up to 10 weeks after drug injection or until the tumor volume grows bigger than 2500 mm^3.

[5] = cited from earlier work
[6] = tested on: endometrial cancer patient derived organoids; experiment: Viability of patient-derived endometrial cancer organoids treated with cannabis extracts (CellTiter-Glo); conditions: for IC50: Homo sapiens; for viable organoids in words: 7 and 10 μg/mL
Description: For this set of experiments, we obtained tissue samples from a new set of 12 patients, each having grade 1, grade 2, or grade 3 endometrial cancer. Cells from these patients were prepared as described in the Methods section below.
as §1, §2

[7] = tested on: patient derived endometrial cancer tumors; experiment: Patient-derived xenograft mice: change in endometrial cancer tumor volume with cannabis extracts alone; format: in vivo; conditions: for decrease in average tumor volume vs day 0: day 10
Description: Generally, EC stem cells from the same patients that participated in the organoid studies of FIG. 7, were injected into the mice, and allowed to grow. After tumors reached a certain size, the mice were either injected (3 times/week) with the extract-delivery vehicle or with the particular cannabis extract. After a certain amount of time elapsed, tumor size was measured. The details regarding patient-derived xenograft methodology and experimental protocol are provided in the Methods section.
The % change is an average number taken from tumor volumes of three mice compared to the starting average tumor volume on day 0 of treatment. Change can either be positive (tumor increases in size) or negative (tumor decreases in size).
as §3

CYP2C19 = CYP2C19 (Homo sapiens, UniProt P33261); conditions: in vitro; cited from earlier work
P-glycoprotein = P-glycoprotein (Homo sapiens, UniProt P08183); conditions: in vitro; cited from earlier work
[8] = cited from earlier work; remark: listed apart in the source
[9] = tested on: organoids derived from ovarian cancer tissue; experiment: Impact of pH on viability of ovarian cancer organoids treated with cannabis extracts; format: cell-based; conditions: 10 μg/mL; pH 8
Description: In this set of experiments, organoids were derived from ovarian cancer tissue.

[10] = in vivo; cited from earlier work
[11] = tested on: patient derived organoids; experiment: Calculated IC50 of various agents on organoids derived from the chemoresistant patient (PD3D cell culture); format: cell-based, human; conditions: Homo sapiens; organoids of the chemoresistant stage IV patient
Description: The IC50 values were calculated from such tests. This value indicates the dosage at which 50% of the organoids were killed due to treatment.

[12] = before cannabis extract treatment
[13] = patient 4, carboplatin alone 250 μM/mL
[14] = read-out: IC50s for Patient 4 Organoids (Grade 2 Endometrial Cancer)
[15] = read-out: IC50s for Patient 12 Organoids (Grade 3 Endometrial Cancer)
[16] = day 14, 6 doses total of about 30 mg/kg

P-glycoprotein, sequence (P08183 whole entry): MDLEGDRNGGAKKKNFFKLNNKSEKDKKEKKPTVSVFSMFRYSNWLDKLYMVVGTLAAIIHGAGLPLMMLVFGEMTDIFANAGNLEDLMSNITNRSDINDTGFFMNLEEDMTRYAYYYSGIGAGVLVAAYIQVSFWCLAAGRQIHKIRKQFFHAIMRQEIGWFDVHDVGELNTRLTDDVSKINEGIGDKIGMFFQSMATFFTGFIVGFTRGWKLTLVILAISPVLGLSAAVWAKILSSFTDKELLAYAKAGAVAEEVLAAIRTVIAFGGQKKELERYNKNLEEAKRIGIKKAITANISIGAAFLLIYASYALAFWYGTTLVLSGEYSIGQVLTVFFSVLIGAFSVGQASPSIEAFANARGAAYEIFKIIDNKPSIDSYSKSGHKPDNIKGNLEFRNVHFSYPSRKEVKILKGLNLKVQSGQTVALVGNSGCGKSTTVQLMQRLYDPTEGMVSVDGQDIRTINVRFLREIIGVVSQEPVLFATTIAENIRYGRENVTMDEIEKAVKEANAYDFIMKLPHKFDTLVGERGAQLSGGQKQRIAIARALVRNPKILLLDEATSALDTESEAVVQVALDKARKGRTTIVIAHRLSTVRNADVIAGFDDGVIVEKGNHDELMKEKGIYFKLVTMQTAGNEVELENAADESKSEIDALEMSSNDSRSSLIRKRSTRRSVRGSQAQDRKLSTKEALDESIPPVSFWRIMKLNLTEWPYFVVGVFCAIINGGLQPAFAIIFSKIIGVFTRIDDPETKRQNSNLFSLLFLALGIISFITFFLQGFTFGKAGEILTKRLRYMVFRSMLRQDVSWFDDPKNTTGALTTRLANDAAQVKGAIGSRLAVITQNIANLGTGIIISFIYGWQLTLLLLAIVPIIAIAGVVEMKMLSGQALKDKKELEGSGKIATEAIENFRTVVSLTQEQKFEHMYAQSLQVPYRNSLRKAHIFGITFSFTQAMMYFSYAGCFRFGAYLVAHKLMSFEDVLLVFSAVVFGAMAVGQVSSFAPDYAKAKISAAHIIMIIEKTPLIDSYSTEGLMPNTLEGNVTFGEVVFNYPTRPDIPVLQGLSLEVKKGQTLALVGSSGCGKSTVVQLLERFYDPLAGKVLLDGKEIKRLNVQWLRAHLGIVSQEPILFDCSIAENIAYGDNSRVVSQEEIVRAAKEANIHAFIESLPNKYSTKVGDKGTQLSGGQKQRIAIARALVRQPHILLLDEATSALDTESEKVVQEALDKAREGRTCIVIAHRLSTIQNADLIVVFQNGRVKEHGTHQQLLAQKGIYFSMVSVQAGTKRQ
CYP2C19, sequence (P33261 whole entry, species assumed): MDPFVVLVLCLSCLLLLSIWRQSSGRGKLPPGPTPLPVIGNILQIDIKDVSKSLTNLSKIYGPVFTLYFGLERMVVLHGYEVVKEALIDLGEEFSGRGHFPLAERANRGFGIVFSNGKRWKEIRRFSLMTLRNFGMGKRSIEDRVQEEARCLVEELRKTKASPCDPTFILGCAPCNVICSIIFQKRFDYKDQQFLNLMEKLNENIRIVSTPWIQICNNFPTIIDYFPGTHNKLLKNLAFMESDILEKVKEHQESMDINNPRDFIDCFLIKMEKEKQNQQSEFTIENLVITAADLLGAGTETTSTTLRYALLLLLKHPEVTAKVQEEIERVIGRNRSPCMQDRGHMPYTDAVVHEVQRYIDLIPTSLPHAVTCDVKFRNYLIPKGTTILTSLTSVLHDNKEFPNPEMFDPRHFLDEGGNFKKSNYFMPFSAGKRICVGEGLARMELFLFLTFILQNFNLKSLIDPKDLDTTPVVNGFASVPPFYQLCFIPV

Which “adverse effects of the patient's earlier treatment” value (endometrial cancer; [12]) does the source give for Atezolizumab here?
The value was “severe adverse effects”.

What about the “outcome of the patient's earlier treatment” value (endometrial cancer; [12]) of the same compound?
The value was “failed”.

With `N.N.O=C([O-])C1(C(=O)[O-])CCC1.[Pt+2]` [Carboplatin] as the compound, how does the “reduction of viable organoids” value ([1]; patient 4, carboplatin alone 50 μM/mL) read?
The value was “about 50%”.

What about the “decrease in viability as compared to 50 μM/mL” value ([1]; patient 4, carboplatin alone 100 μM/mL) of the same compound?
Its value is 2%.

What about the “decrease in viability from that achieved at 50 μM/mL” value [1, 13] of the same compound?
Its value is 17%.

What about the organoid viability [1, 13] of the same compound?
The organoid viability was “about 32%”.

What about the “% Cell Death” value [2] of the same compound?
The value was 30%.

With gemcitabine/capecitabine [GemCap] as the compound, how does the “response of the patient's organoids” value [3] read?
Its value is “partial response”.

What does the source list for `C=C(C)[C@@H]1CCC(C)=C[C@H]1c1c(O)cc(CCCCC)c(C(=O)O)c1O` [CBDA, cannabidiolic acid]?
increase in average tumor volume ([4]; a few days before day 14, extract 30 mg/kg + paclitaxel 10 mg/kg): ~40%; decrease in average tumor volume compared to paclitaxel alone ([4]; day 14, extract 30 mg/kg + paclitaxel 10 mg/kg): ~20%; bioavailability ([5]; consumed with other cannabinoids in FSHE vs equivalent dose of isolated CBDA): increased bioavailability; response of organoids ([6]; 10 and 15 μg/mL): a strong response was not seen in all patient derived organoids; IC50 [6, 14]: 12.1 µg/mL (≈ 33.6 µM); IC50 [6, 15]: 15.8 µg/mL (≈ 44.1 µM); formation of viable organoids ([6]; all patients, dosing up to 50 μg/mL): ~0%; effect on organoid viability ([6]; lower doses): did not affect organoid viability; increase in average tumor volume vs day 0 ([7]; day 7, 3 doses of about 30 mg/kg, injected 3 times/week): greater than 30%; overall decrease in average tumor volume in three days ([7]; day 7 to day 10, about 30 mg/kg, 3 times/week): greater than 60%; decrease in average tumor volume vs day 0 ([7]; about 30 mg/kg, 3 times/week): greater than 30%; decrease in average tumor volume compared to starting size [7, 16]: 70%; decrease in average tumor volume compared to starting size ([7]; day 21, 9 doses total of about 30 mg/kg): ~100%

For Paclitaxil/Carboplatin, which “outcome of the patient's earlier treatment” value (endometrial cancer; [12]) is on record?
Its value is “ineffective”.

What does the source list for `CC(=O)O[C@H]1C(=O)[C@@]2(C)[C@H]([C@H](OC(=O)c3ccccc3)[C@]3(O)C[C@H](OC(=O)[C@H](O)[C@@H](NC(=O)c4ccccc4)c4ccccc4)C(C)=C1C3(C)C)[C@]1(OC(C)=O)CO[C@@H]1C[C@@H]2O` [Paclitaxel]?
organoid viability ([1]; human, 9 days, 4 nM/mL): about 30%; improvement of 20 nM/mL over the lower dose (4 nM/mL) ([1]; patient 4, grade 2, paclitaxel alone): about 12%; improvement in reducing % viable organoids between 4 nM/mL and 20 nM/mL ([1]; patient 12, grade 3, paclitaxel alone): ~5%; decrease in tumor volume ([4]; paclitaxel alone 10 mg/kg, day 10): ~37%; further change of tumor volume ([4]; paclitaxel alone 10 mg/kg, day 10 to day 21): does not really change; % Cell Death [2]: 39%

Which “adverse effects of the patient's earlier treatment” value (endometrial cancer; human, in vivo) does the source give for `CCN1CCN(Cc2ccc(Nc3ncc(F)c(-c4cc(F)c5nc(C)n(C(C)C)c5c4)n3)nc2)CC1` [Abemaciclib] here?
The value was “severe adverse effects”.

For `C=C(C)[C@@H]1CCC(C)=C[C@H]1c1c(O)cc(CCCCC)cc1O` [CBD isolate, cannabidiol], which “inhibition of CYP2C19 enzymes” value (CYP2C19) is on record?
Its value is “potent inhibitor”.

And the “decrease in viable organoids compared to carboplatin alone” value ([1]; patient 4, IC50 dose of extract + 100 μM/mL carboplatin)?
Its value is “about 32%”.

What about the “decrease in the % of viable organoids when 4 nM/mL paclitaxel is combined with extract” value ([1]; patient 12, grade 3, IC50 dose of extract + 4 nM/mL paclitaxel) of the same compound?
Its value is “up to 19%”.

What about the P-glycoprotein-mediated drug transport (P-glycoprotein) of the same compound?
The P-glycoprotein-mediated drug transport was “significantly inhibits”.

And the “dose with clinically significant drug interactions” value ([8]; current literature)?
Its value is 20 mg/kg/day.

And the “doses established as well tolerated” value ([8]; humans, chronic use)?
The value was “up to 1,500 mg/day”.

What about the “dose with meaningful interactions with Warfarin” value ([8]; published case study) of the same compound?
The value was 10 mg/kg.

What about the “effect on peak plasma drug concentrations” value ([5]; coadministration of ketoconazole (CYP3A4 inhibitor)) of the same compound?
Its value is “nearly doubled”.

And the “effect on peak plasma concentrations” value ([5]; coadministration of rifampicin (CYP3A4 inducer))?
The value was “significantly reduced”.

And the “increase of Cmax” value ([5]; coadministration with high fat food)?
The value was “up to 5 fold”.

What about the Tmax ([5]; delivery via nasal mucosa) of the same compound?
Its Tmax is “approximately 10 minutes”.

And the “maximum plasma concentration (time)” value ([5]; oral)?
Its value is 2.5 to 5 h.

And the “maximum plasma concentration (time), delayed in some individuals” value ([5]; oral)?
Its value is “up to 6 hours”.

What about the serum bioavailability ([5]; orally delivered, consumed with CBDA) of the same compound?
Its serum bioavailability is “increase substantially”.

What about the “maximum plasma concentration (time)” value ([5]; oromucosal or sublingual delivery) of the same compound?
Its value is 1.6 h.

And the bioavailability ([5]; rectal suppository delivery)?
Its bioavailability is 51-60%.

And the IC50 [6, 14]?
The IC50 was 3.09 µg/mL (≈ 9.83 µM).

What about the IC50 [6, 15] of the same compound?
The IC50 was 2.92 µg/mL (≈ 9.29 µM).

And the IC50 ([6]; read-out: dose at which 50% viability of organoids was obtained)?
Its IC50 is about 3 µg/mL (≈ 9.54 µM).

And the “viable organoids / response in words” value ([6]; grade 1, 10 μg/mL)?
Its value is “does not show complete response”.

And the response of organoids ([6]; grade 1 lower responder patient, 15 and 20 μg/mL)?
Its response of organoids is “complete response”.

What about the “viable organoids in words” value ([6]; grade 2) of the same compound?
The value was “virtually zero”.

What about the “viable organoids in words” value ([6]; grade 3) of the same compound?
Its value is “virtually zero”.

And the “dose at which 50% viability of organoids was obtained” value ([6]; grade 3 representative sample (FIG. 7))?
The value was “about 3 μg/mL”.

And the “decrease in average tumor volume vs day 0” value ([7]; about 30 mg/kg, 3 times/week)?
The value was “not as responsive”.

And the “decrease in average tumor volume compared to starting size” value [7, 16]?
The value was “less than 50%”.

And the “efficacy compared to native pH” value [9]?
Its value is “virtually no change”.

For `Cn1nnc2c(C(N)=O)ncn2c1=O` [Temozolomide], which Cmax [10] is on record?
Its Cmax is 37.6 µM.

What about the “% Cell Death” value [2] of the same compound?
The value was 40%.

What about the IC50 [11] of the same compound?
The IC50 was 106 µM.

Which “onset to reach peak plasma concentration” value ([5]; oral formulations) does the source give for `CCCCCc1cc(O)c2c(c1)OC(C)(C)[C@@H]1CCC(C)=C[C@@H]21` [THC, Δ^9-tetrahydrocannabinol] here?
The value was about 120 min.
